Holding throughout (format): functional
Test [1] addresses T1, Putative uncharacterized protein pk7 (Plasmodium falciparum, UniProt O96214).
T1 sequence (O96214 whole entry): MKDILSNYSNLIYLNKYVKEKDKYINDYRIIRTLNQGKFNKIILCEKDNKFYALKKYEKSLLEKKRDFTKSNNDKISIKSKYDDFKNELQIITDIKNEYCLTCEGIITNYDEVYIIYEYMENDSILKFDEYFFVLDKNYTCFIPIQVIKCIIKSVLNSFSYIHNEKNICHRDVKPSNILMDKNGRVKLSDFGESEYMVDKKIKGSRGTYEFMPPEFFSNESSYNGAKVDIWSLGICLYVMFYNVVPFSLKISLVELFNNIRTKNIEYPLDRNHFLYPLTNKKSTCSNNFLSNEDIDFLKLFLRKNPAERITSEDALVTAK
The test is described as follows: Final concentrations were 1 uM ATP, 2 mM DTT, 20 mM MgCl2, 2 mM MnCl2, 0.01% BSA, and 6 ug/ml PK7, in a buffer of 20 mM Tris-HCl (pH 7.5). The enzyme itself was the only substrate present (since autophosphorylation occurs); 100 uM 1NA-PP1 was used as a control inhibitor. Incubation time was 3 hours.

The target in test [2] is T2, Mitogen-activated protein kinase (Plasmodium falciparum, UniProt Q25917).
T2 sequence (Q25917 whole entry): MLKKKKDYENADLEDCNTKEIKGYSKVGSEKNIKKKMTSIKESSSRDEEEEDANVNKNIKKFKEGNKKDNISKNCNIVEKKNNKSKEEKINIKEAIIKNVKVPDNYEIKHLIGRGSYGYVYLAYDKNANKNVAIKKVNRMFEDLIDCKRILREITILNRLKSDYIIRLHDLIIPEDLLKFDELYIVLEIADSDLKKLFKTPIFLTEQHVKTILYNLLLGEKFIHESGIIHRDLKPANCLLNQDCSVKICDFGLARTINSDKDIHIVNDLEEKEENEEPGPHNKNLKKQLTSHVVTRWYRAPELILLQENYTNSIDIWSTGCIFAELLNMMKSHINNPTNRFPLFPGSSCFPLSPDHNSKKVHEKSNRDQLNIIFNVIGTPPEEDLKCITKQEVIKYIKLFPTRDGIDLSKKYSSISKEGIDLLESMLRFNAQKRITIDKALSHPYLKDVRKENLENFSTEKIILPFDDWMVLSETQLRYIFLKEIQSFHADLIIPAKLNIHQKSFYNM
Description: Final concentrations were 1 uM ATP, 0.5 mM DTT, 1 mM MgCl2, 0.5 mg/mL BSA, and 10 ug/ml MAP2 in a buffer of 50 mM HEPES (pH 7.0). 0.5 mg/mL histone III-S served as the substrate (13); 100 uM AMP-PNP, an ATP analog, was used as a control inhibitor. Incubation time was 4 hours.

A further test has as its target T3, Proline--tRNA ligase (Plasmodium falciparum (isolate 3D7), UniProt Q8I5R7).
T3 sequence (Q8I5R7 whole entry): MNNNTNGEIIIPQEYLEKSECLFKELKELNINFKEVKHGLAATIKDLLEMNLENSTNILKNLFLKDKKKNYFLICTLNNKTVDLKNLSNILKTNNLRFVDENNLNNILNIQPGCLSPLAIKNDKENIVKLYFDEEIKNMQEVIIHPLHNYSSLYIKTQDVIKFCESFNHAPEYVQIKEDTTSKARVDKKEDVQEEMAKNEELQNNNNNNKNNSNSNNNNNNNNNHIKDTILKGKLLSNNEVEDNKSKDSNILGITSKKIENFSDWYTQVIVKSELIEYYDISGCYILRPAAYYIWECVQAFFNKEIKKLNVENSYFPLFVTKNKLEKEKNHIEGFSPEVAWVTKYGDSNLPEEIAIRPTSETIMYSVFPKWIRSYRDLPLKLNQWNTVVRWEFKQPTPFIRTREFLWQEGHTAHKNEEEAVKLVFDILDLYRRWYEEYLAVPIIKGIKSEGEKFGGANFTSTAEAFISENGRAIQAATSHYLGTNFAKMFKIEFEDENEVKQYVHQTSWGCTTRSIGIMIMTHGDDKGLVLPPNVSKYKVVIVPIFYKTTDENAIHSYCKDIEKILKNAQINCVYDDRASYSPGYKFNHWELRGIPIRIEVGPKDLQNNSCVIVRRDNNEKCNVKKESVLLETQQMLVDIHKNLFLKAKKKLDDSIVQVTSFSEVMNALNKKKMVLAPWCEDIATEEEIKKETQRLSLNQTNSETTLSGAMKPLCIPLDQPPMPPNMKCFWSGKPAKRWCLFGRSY
Description: MMV: ProRS recombinant Plasmodium falciparum Prolyl-tRNA-synthetase, assay with yeast tRNA, ATP, and proline and 3 uM MMV malaria box compound, assay read out with kinase glo as % inhibition.

Test [3] addresses T4, Calcium-dependent protein kinase 4 (Plasmodium falciparum (isolate 3D7), UniProt Q8IBS5).
T4 sequence (Q8IBS5 whole entry): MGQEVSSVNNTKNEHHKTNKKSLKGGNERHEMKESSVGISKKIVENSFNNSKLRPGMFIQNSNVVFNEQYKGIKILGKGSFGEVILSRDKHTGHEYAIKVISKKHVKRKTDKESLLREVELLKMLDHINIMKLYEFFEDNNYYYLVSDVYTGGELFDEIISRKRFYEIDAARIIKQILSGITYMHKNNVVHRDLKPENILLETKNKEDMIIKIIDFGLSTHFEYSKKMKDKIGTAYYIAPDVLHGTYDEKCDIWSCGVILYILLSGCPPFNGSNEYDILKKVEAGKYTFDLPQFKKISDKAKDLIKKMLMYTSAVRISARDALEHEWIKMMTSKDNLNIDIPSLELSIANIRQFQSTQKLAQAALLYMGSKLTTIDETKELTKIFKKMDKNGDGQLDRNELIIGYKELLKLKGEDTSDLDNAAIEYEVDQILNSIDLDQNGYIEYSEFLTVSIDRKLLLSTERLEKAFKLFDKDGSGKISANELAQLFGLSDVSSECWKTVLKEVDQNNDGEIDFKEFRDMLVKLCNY
The test is described as follows: MMV: CDPK4 Protein kinase inhibition assay using recombinant PfCDPK4, syntide2 peptide substrate, ATP and KinaseGlo to measure % inhibition at 1 uM MMV box compound.

The target in test [4] is T5, Cdk-related protein kinase 6 (Plasmodium falciparum, UniProt O77239).
T5 sequence (O77239 whole entry): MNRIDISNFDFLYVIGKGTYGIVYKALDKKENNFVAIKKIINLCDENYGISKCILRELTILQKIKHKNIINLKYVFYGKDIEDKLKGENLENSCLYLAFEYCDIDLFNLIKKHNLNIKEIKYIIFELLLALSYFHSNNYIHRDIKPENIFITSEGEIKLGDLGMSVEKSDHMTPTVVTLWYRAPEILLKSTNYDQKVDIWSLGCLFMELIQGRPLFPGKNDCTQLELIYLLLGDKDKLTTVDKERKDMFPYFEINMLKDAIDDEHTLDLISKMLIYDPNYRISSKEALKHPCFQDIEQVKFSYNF
The test is described as follows: Final concentrations were 1.5 uM ATP, 5 mM MnCl2, and 15 ug/ml PK6 in a buffer of 100 mM Tris-HCl (pH 7.5). 50 ug/mL MBP was provided as the substrate; 10 uM staurosporine was used as a control inhibitor. Incubation time was 3 hours and 40 minutes.The catalytic activity of each kinase was considered proportional to ATP consumed, as determined from measurements of residual [ATP] with the luciferase-based reagent Kinase-Glo (Promega) following incubation. Luminescence (proportional to residual [ATP]) was measured on the plate readers FLx800 (BioTek Instruments, Winooski, VT, USA) and MicroBeta2.

The target in test [5] is Calcium-dependent protein kinase 1 (Plasmodium falciparum, UniProt P62344). Description: MMV: CDPK1 Protein kinase inhibition assay using recombinant PfCDPK1, syntide 2 peptide substrate, ATP and KinaseGlo to measure % inhibition at 1 uM MMV box compound.
In the next test the target is Lysine--tRNA ligase (Plasmodium falciparum (isolate 3D7), UniProt Q8IDJ8). The test is described as follows: MMV: KRS recombinant Plasmodium falciparum Lysyl-tRNA-synthetase, assay with yeast tRNA, ATP, and lysine and 3 uM MMV malaria box compound, assay read out with kinase glo as % inhibition.

Each structure is given as a SMILES string.

Sequence of Calcium-dependent protein kinase 1 (P62344 whole entry): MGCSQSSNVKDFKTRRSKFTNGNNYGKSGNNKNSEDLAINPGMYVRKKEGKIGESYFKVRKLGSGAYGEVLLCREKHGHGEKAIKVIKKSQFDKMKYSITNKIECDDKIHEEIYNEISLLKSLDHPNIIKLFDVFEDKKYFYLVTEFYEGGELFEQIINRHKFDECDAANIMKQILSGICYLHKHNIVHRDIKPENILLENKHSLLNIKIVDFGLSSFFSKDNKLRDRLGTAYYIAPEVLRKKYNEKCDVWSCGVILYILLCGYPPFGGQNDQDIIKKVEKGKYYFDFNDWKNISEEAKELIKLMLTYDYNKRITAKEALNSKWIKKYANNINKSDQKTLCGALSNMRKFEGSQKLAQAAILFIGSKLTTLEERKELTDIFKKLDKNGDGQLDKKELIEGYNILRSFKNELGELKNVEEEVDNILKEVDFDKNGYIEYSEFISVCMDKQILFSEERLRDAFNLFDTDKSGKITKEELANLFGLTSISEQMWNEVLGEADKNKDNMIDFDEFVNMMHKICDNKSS
Sequence of Lysine--tRNA ligase (Q8IDJ8 whole entry): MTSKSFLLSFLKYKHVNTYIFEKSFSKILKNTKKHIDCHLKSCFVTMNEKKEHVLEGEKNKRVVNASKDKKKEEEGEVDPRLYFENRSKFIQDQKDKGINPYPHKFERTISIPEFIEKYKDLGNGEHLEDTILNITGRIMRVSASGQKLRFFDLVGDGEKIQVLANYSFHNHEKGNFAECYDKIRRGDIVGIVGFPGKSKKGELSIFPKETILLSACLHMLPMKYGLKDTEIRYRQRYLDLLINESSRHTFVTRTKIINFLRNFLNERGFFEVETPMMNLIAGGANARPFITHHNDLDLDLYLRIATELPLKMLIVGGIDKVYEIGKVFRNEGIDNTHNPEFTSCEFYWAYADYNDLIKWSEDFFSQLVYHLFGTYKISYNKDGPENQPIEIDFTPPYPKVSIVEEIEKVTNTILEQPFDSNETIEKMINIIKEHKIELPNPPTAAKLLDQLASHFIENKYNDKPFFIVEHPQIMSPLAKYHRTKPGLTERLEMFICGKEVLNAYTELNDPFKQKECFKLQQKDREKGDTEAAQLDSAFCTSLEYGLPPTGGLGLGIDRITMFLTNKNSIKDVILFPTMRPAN

`COc1cc(SC)ccc1C(=O)N1CCCC(C)C1` (centres undefined): the IC50 in test [1] was above 1000 nM; in test [2], above 1000 nM; on Proline--tRNA ligase, above 2500 nM; in test [3] it was above 1000 nM; in test [4] it was above 1000 nM; in test [5], above 1000 nM. For the same compound, the IC50 at Lysine--tRNA ligase was above 2500 nM.

For `COc1cc2c3cc1Oc1c(OC)c(OC)cc4c1C(Cc1ccc(O)c(c1)Oc1ccc(cc1)CC3N(C)CC2)N(C)CC4` (centres undefined), the IC50 in test [1] was above 1000 nM; in test [2], above 1000 nM; on Proline--tRNA ligase, above 2500 nM; in test [3], above 1000 nM; in test [4] it was above 1000 nM; in test [5] it was above 1000 nM. The IC50 at Lysine--tRNA ligase is above 2500 nM.

As to `COc1ccc2c(c1)OC(O)(C(F)(F)C(F)(F)F)CC2=O` (centres undefined), the IC50 in test [1] is above 1000 nM; in test [2] it was above 1000 nM; on Proline--tRNA ligase it was above 2500 nM; in test [3], above 1000 nM; in test [4], above 1000 nM; in test [5], above 1000 nM. On Lysine--tRNA ligase, the IC50 was above 2500 nM.

Consider `COc1cccc(C2(C)Nc3ccccc3-c3nc4ccccc4n32)c1` (centres undefined), for which the IC50 in test [1] was above 1000 nM; in test [2], above 1000 nM; on Proline--tRNA ligase it was above 2500 nM; in test [3] it was above 1000 nM; in test [4] it was above 1000 nM; in test [5], above 1000 nM. Moreover, the IC50 on Lysine--tRNA ligase is above 2500 nM.

As for `CN1CCN(c2c3c(c(C#N)c4nc5ccccc5n24)CCC3)CC1`, the IC50 was above 1000 nM in test [1]; above 1000 nM in test [2]; above 2500 nM at Proline--tRNA ligase; above 1000 nM in test [3]; above 1000 nM in test [4]; above 1000 nM in test [5]. For the same compound, the IC50 at Lysine--tRNA ligase is above 2500 nM.

With `Oc1ccccc1CNCC12CC3CC(CC(C3)C1)C2`, the IC50 was above 1000 nM in test [1]; above 1000 nM in test [2]; above 2500 nM on Proline--tRNA ligase; above 1000 nM in test [3]; above 1000 nM in test [4]; above 1000 nM in test [5]. Further, the IC50 at Lysine--tRNA ligase is above 2500 nM.

In the case of `CN(C)CCCNc1c2ccccc2nc2ccccc12`, the IC50 in test [1] is above 1000 nM; in test [2], above 1000 nM; on Proline--tRNA ligase, above 2500 nM; in test [3] it was above 1000 nM; in test [4] it was above 1000 nM; in test [5], above 1000 nM. In addition, at Lysine--tRNA ligase, the IC50 is above 2500 nM.

As for `CCOC(=O)c1cn(CC)c2cc(N3CCCCC3)c(F)cc2c1=O`, the IC50 in test [1] is above 1000 nM; in test [2], above 1000 nM; on Proline--tRNA ligase, above 2500 nM; in test [3] it was above 1000 nM; in test [4], above 1000 nM; in test [5] it was above 1000 nM. Also, on Lysine--tRNA ligase, the IC50 is above 2500 nM.

For the compound `Oc1ccccc1CN1CCC2(CCCN(Cc3ccccc3F)C2)C1` (centres undefined), the IC50 in test [1] is above 1000 nM; in test [2], above 1000 nM; at Proline--tRNA ligase, above 2500 nM; in test [3], above 1000 nM; in test [4], above 1000 nM; in test [5], above 1000 nM. Also, the IC50 on Lysine--tRNA ligase was above 2500 nM.

As to `CCOc1cc(Cl)c(C(C)NC(=O)c2ccccc2)cc1OCC` (centres undefined), the IC50 in test [1] was above 1000 nM; in test [2], above 1000 nM; at Proline--tRNA ligase it was above 2500 nM; in test [3], above 1000 nM; in test [4], above 1000 nM; in test [5] it was above 1000 nM. For the same compound, the IC50 at Lysine--tRNA ligase was above 2500 nM.

`c1ccc2c(NCCCCCCNc3c4c(nc5ccccc35)CCCC4)c3c(nc2c1)CCCC3`: the IC50 in test [1] was above 1000 nM; in test [2] it was above 1000 nM; at Proline--tRNA ligase, above 2500 nM; in test [3], above 1000 nM; in test [4], above 1000 nM; in test [5] it was above 1000 nM. Besides, the IC50 on Lysine--tRNA ligase was above 2500 nM.

In the case of `CC1CCN(Cc2c(O)ccc3cc(-c4nc5ccccc5s4)c(=O)oc23)CC1`, the IC50 in test [1] was above 1000 nM; in test [2] it was above 1000 nM; on Proline--tRNA ligase it was above 2500 nM; in test [3], above 1000 nM; in test [4], above 1000 nM; in test [5], above 1000 nM. In addition, the IC50 on Lysine--tRNA ligase was above 2500 nM.

The record behind these values is ChEMBL document CHEMBL3301562, “MMV Box screening against Plasmodium falciparum protein kinases and aminoacyl tRNA synthetases”.
